Source: US20250255981A1, “IMMUNOMODULATORY ANTIBODY-DRUG CONJUGATES” (Seagen Inc., priority 2022, published 2025)

Key:
CT26 cancer cells = experiment: In vivo anti-tumor activity, CT26 tumor model; set-up: species or system mouse; details: CT26, q7dx3
Experimental: CT26 cancer cells (ATCC) were cultured in RPMI 1640 modified with 1 mM Sodium Pyruvate, 10 mM HEPES, 2.8 mL 45% Glucose (1.25 g) and supplemented with 10% fetal bovine serum and 1% Pen/Strep/Glutamine. CT26 cancer cells were implanted (0.5*10^6 cells in 200 uL serum-free RPMI 1640) subcutaneously into Balb/c mice.

[1] = test system: wild type (WT) murine bone marrow-derived macrophages; experiment: Bone marrow-derived macrophage assay, wild type; format: cell-based, mouse; details: 24 hours
Experimental: Potency of the compounds described herein was evaluated using mouse bone-marrow derived macrophages cultured from wild type (C57BL/6J, the Jackson Laboratory #000664) or STING-deficient (C57BL/6J-Sting1^gt/J, the Jackson Laboratory #017537) mice. Briefly, mouse bone marrow cells were cultured for 7-10 days in RPMI-1640 (Gibco) with 10% heat-inactivated fetal bovine serum, Pen-Strep (100 U/mL-100 […], Gibco), HEPES (10 mM, Gibco), sodium pyruvate (1 mM, Gibco), GlutaMAX (1×, Gibco), beta-mercaptoethanol ([…], Gibco) and 20-40 ng/mL murine M-CSF (Peprotech, #315-02). Cells were plated in a 96-well flat bottom tissue culture-treated clear polystyrene plate (Corning Costar #3596) at ˜100,000 cells per well in 200 μL with the indicated concentration of the compound. The supernatant was harvested at 24 hours and cytokines were measured using a Milliplex MAP mouse cytokine/chemokine magnetic bead panel assay kit (MCYTOMAG-70k custom 11-plex kit: MCP1, MIP1α, MIP1β, TNFα, IFNγ, IL-10, IL-12p70, IL-1β, IL-6, IP10, RANTES) and analyzed using a Luminex™ MAGPIX™ Instrument System.

Renca cancer cells = experiment: In vivo anti-tumor activity, Renca tumor model
Experimental: In some experiments, Renca tumor cells were engineered to express the indicated murine or human target antigen.
(§1) When tumor volumes reached 100 mm^3, the mice were dosed with either compounds or ADCs by intraperitoneal or intravenous injection at the indicated dosing schedule and tumor volumes were monitored twice weekly. Compounds were formulated in 40% PEG400 in saline.
(§2) A syngeneic system was used to assess the ability of the STING agonist ADCs to induce immune responses in vivo and drive an anti-tumor immune response. The Renca system is a subcutaneous, mouse renal adenocarcinoma model. Female Balb/c mice were implanted with 2×10^6 Renca cells subcutaneously in the flank on day 0. When mean tumor size of 100 mm^3 (measured by using the formula Volume (mm^3)=0.5*Length*Width^2 where length is the longer dimension) was reached mice were randomized into treatment groups of ≥5 mice per group. Animals were then treated intraperitoneally (ADCs or compounds) or intravenously (compounds) with the indicated treatment every 7 days, for 3 doses total (or as indicated). Tumor length and width and the weight of the animals was measured throughout the study and tumor volume was calculated using the formula above. Animals were followed until the tumor volume reached ˜1000 mm^3; animals were then euthanized.

[2] = test system: THP1-Dual™ cells (IRF-Lucia luciferase reporter); experiment: THP1-Dual™ cell reporter assay; format: cell-based, human
Procedure, shortened: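 THP1-Dual cells (~100,000 per well) exposed to compound or ADC in supplemented RPMI-1640 with 10% FBS; supernatant taken at 24 h for compounds or 48 h for ADCs. Secreted IRF-driven Lucia luciferase measured by luminescence with QUANTI-Luc reagent.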

Renca tumor-bearing mice = experiment: In vivo cytokine assay, Renca tumor-bearing mice; set-up: species or system mouse; RANTES in plasma / TNFa in plasma: unit not given here; details: for IFNγ in plasma / IL1β in plasma / IL12p70 in plasma / IL-6 in plasma / IL-10 in plasma / IP10 in plasma / MCP-1 in plasma / MIP1α in plasma / MIP1β in plasma / RANTES in plasma / TNFa in plasma: 1.48 mg/kg
Experimental: Cytokines were measured in mouse plasma harvested at 3, 6, 24, or 48 hours after treatment with compounds or ADCs using a Milliplex MAP mouse cytokine/chemokine magnetic bead panel assay kit (MCYTOMAG-70k custom 11-plex kit: MCP1, MIP1a, MIP1(3, TNFα, IFNγ, IL-10, IL-12p70, IL-6, IL-1β, IP10, RANTES) and analyzed using a Luminex™ MAGPIX™ Instrument System. Values that were outside of the standard curve range (<3.2 or […]) were either excluded from calculation of the mean values or, when indicated, converted to […] for calculation of the mean values.
Renca cancer cells (ATCC) were cultured in RPMI-1640 (ATCC) with 10% heat-inactivated fetal bovine serum, Pen-Strep (100 U/mL-100 μg/mL), MEM non-essential amino acids (1×), sodium pyruvate (1 mM), and L-glutamine (2 mM). Renca cancer cells were implanted (2*10^6 cells in 200 μL 25% Matrigel) subcutaneously into Balb/c female mice. In some experiments, Renca tumor cells were engineered to express the indicated murine or human target antigen.
as §1, §2

DEL = experiment: Cancer cell direct cytotoxicity assay, DEL; format: cell-based, human; details: 96 hours, read-out: Compound X50
Experimental: (§3) Cancer cells were counted and plated in 40 μL complete growth media in 384-well, white-walled tissue culture treated plates (Corning). Cell plates were incubated at 37° C. and with 5% CO2 overnight to allow the cells to equilibrate. Stock solutions containing ADCs or free drugs were serially diluted in RPMI-1640+20% fetal bovine serum (FBS). 10 μL of each concentration were then added to each cell plate in duplicate. Cells were then incubated at 37° C. and with 5% CO2 for 96 hours, upon which, the cell plates were removed from the incubator and allowed to cool to room temperature for 30 minutes prior to analysis. CellTiter-Glo® luminescent assay reagent (Promega Corporation, Madison, WI) was prepared according to Promega's protocol. 10 μL of CellTiter-Glo® were added to assay plates using a Formulatrix Tempest liquid handler (Formulatrix) and the plates were protected from light for 30 minutes at room temperature. The luminescence of the samples was measured using an EnVision Multimode plate reader (Perkin Elmer, Waltham, MA). Raw data were analyzed in Graphpad Prism (San Diego, CA) using a nonlinear, 4-parameter curve fit model [Y=Bottom+(Top-Bottom)/(1+10^((Log EC50−X)*HillSlope))]. Results are reported as X50 values, which are defined as the concentration of ADC or free drug required to reduce cell viability to 50%.

MOLM-13 = experiment: Cancer cell direct cytotoxicity assay, MOLM-13; format: cell-based, human; details: 96 hours, read-out: Compound X50
Experimental: as §3

BxPC3 = experiment: Cancer cell direct cytotoxicity assay, BxPC3; format: cell-based, human; details: 96 hours, read-out: Compound X50
Experimental: as §3

MDAMB231 = experiment: Cancer cell direct cytotoxicity assay, MDAMB231; format: cell-based, human; details: 96 hours, read-out: Compound X50
Experimental: as §3

A2058 = experiment: Cancer cell direct cytotoxicity assay, A2058; format: cell-based, human; details: 96 hours, read-out: Compound X50
Experimental: as §3

L540cy = experiment: Cancer cell direct cytotoxicity assay, L540cy; format: cell-based, human; details: 96 hours, read-out: Compound X50
Experimental: as §3

Karpas299 = experiment: Cancer cell direct cytotoxicity assay, Karpas299; format: cell-based, human; details: 96 hours, read-out: Compound X50
Experimental: as §3

DELBVR = experiment: Cancer cell direct cytotoxicity assay, DELBVR; format: cell-based, human; details: 96 hours, read-out: Compound X50
Experimental: as §3

SU-DHL-4 = experiment: Cancer cell direct cytotoxicity assay, SU-DHL-4; format: cell-based, human; details: 96 hours, read-out: Compound X50
Experimental: as §3

Ls174T = experiment: Cancer cell direct cytotoxicity assay, Ls174T; format: cell-based, human; details: 96 hours, read-out: Compound X50
Experimental: as §3

786-O = experiment: Cancer cell direct cytotoxicity assay, 786-O; format: cell-based, human; details: 96 hours, concentration required to reduce cell viability to 50%, read-out: Compound X50
Experimental: as §3

For `CCn1nc(C)cc1C(=O)Nc1nc2cc(C(N)=O)cc(O)c2n1C/C=C/Cn1c(NC(=O)c2cc(C)nn2CC)nc2cc(C(N)=O)cc(OC)c21` [compound 1, (E)-1-(4-(5-carbamoyl-2-(1-ethyl-3-methyl-1H-pyrazole-5-carboxamido)-7-hydroxy-1H-benzo[d]imidazol-1-yl)but-2-en-1-yl)-2-(1-ethyl-3-methyl-1H-pyrazole-5-carboxamido)-7-methoxy-1H-benzo[d]imidazole-5-carboxamide], the “tumor growth” value (CT26 cancer cells) was “minimal tumor growth delay”, the “cytokine production” value [1] was “induced cytokine production” and the “tumor growth / anti-tumor activity” value (Renca cancer cells; Renca, q7dx3) was “some tumor growth delay was observed”. For the same molecule, the average weight loss (Renca cancer cells; after the 1st and 2nd dose of the treatment) was under −5%, the “relative potency of free drug, Lucia reporter” value ([2]; free drug, 24 h (48 h elsewhere in the source)) was “significantly more potent than (2′, 3′)-Rp,Rpc-diAMPS disodium (Compound B)” and the IFNγ in plasma (Renca tumor-bearing mice; 3 h after treatment) was under 3.2 pg/mL. The IL1β in plasma (Renca tumor-bearing mice; 3 h after treatment) was 0.7 pg/mL, the IL12p70 in plasma (Renca tumor-bearing mice; 3 h after treatment) was 174 pg/mL and the IL-6 in plasma (Renca tumor-bearing mice; 3 h after treatment) was 95.7 pg/mL. For the same molecule, the IL-10 in plasma (Renca tumor-bearing mice; 3 h after treatment) was 48.8 pg/mL, the IP10 in plasma (Renca tumor-bearing mice; 3 h after treatment) was 703 pg/mL and the MCP-1 in plasma (Renca tumor-bearing mice; 3 h after treatment) was 168 pg/mL. It also gave an MIP1α in plasma (Renca tumor-bearing mice; 3 h after treatment) of 55.6 pg/mL, an MIP1β in plasma (Renca tumor-bearing mice; 3 h after treatment) of 362 pg/mL and an RANTES in plasma (Renca tumor-bearing mice; 3 h after treatment) of 10.6. The TNFa in plasma (Renca tumor-bearing mice; 3 h after treatment) was 3.6, the IFNγ in plasma (Renca tumor-bearing mice; 6 h after treatment) was 0.2 pg/mL and the IL1β in plasma (Renca tumor-bearing mice; 6 h after treatment) was 1.5 pg/mL. For the same molecule, the IL12p70 in plasma (Renca tumor-bearing mice; 6 h after treatment) was under 3.2 pg/mL, the IL-6 in plasma (Renca tumor-bearing mice; 6 h after treatment) was 6.8 pg/mL and the IL-10 in plasma (Renca tumor-bearing mice; 6 h after treatment) was 0.8 pg/mL. For the same molecule, the IP10 in plasma (Renca tumor-bearing mice; 6 h after treatment) was 3390 pg/mL, the MCP-1 in plasma (Renca tumor-bearing mice; 6 h after treatment) was 796 pg/mL and the MIP1α in plasma (Renca tumor-bearing mice; 6 h after treatment) was 38.9 pg/mL. It also gave an MIP1β in plasma (Renca tumor-bearing mice; 6 h after treatment) of 169 pg/mL, an RANTES in plasma (Renca tumor-bearing mice; 6 h after treatment) of 18.4 and a TNFa in plasma (Renca tumor-bearing mice; 6 h after treatment) of 1.9. It also gave an IFNγ in plasma (Renca tumor-bearing mice; 24 h after treatment) of under 3.2 pg/mL, an IL1β in plasma (Renca tumor-bearing mice; 24 h after treatment) of 0.8 pg/mL and an IL12p70 in plasma (Renca tumor-bearing mice; 24 h after treatment) of 140 pg/mL. For the same molecule, the IL-6 in plasma (Renca tumor-bearing mice; 24 h after treatment) was 13.5 pg/mL, the IL-10 in plasma (Renca tumor-bearing mice; 24 h after treatment) was 34.6 pg/mL and the IP10 in plasma (Renca tumor-bearing mice; 24 h after treatment) was 551 pg/mL. It also gave an MCP-1 in plasma (Renca tumor-bearing mice; 24 h after treatment) of 333 pg/mL, an MIP1α in plasma (Renca tumor-bearing mice; 24 h after treatment) of 69.9 pg/mL and an MIP1β in plasma (Renca tumor-bearing mice; 24 h after treatment) of 70.7 pg/mL. For the same molecule, the RANTES in plasma (Renca tumor-bearing mice; 24 h after treatment) was 15.6, the TNFa in plasma (Renca tumor-bearing mice; 24 h after treatment) was 2.0 and the “systemic pro-inflammatory cytokine (IL-6 and TNF) production” value (Renca tumor-bearing mice; plasma) was “induced very little pro-inflammatory cytokine (IL-6 and TNF) production”.
`CCn1nc(C)cc1C(=O)Nc1nc2cc(C(N)=O)cc(OC)c2n1C/C=C/Cn1c(NC(=O)c2cc(C)nn2CC)nc2cc(C(N)=O)cc(OCCCN(C)C(=O)CCN3C(=O)CC(SC[C@H](N)C(=O)O)C3=O)c21` (stereo partly drawn) [compound 16] showed an IC50 (DEL) of 4 nM, an IC50 (MOLM-13) of 27 nM and an IC50 (BxPC3) of over 1000 nM. The IC50 (MDAMB231) was over 1000 nM, the IC50 (A2058) was over 1000 nM and the IC50 (L540cy) was 29 nM. It also gave an EC50 ([2]; small molecules, 24 h, >10,000 nM = minimal activity up to 10 μM, some values average of multiple experiments, read-out: EC50, Lucia reporter signal) of 52 nM, an IC50 (Karpas299) of over 1000 nM and an IC50 (DELBVR) of 7 nM. For the same molecule, the IC50 (SU-DHL-4) was over 1000 nM, the IC50 (Ls174T) was over 1000 nM and the IC50 (786-O) was over 1000 nM.
